Data on two compounds can be found in patent US6821289B2, “Efficacy and safety of photodynamic therapy by multiple application protocols with photosensitizers that show extended tumor retention” (CeramOptec Industries, Inc., priority 2003, dated 2004).

A value given as a limit tells only on which side of the number the result lay.

In data set [1] the test system is tumor. To be noted: mice; cited from earlier work.
Data set [2] relates to xenografted human pancreatic tumor. To be noted: cited from earlier work.
Data set [3] has as its system chemically induced rat skin tumor. To be noted: cited from earlier work.
The test system of the next data set is pancreatic tumor. The settings on record: rats, cited from earlier work.
The next data set deals with pancreas carcinoma. Nature of the data set: PDT of a pancreas carcinoma, four intravenous administrations (Example 1). It is filed as in vivo. The settings on record: 100-200 J/cm^2 at approximately 100 mW/cm^2. On the procedure: A formulation of the PS pheophorbide a is administered intravenously 4 times as described above, with doses ranging from approximately 2 to 20 mg of PS per kilogram of body weight, achieving an at least a 50:1 ratio of PS content in the carcinoma to the PS content in the surrounding healthy pancreatic tissue. Light guiding fibres are placed within the tumor under imaging guidance. The tumor is irradiated with an energy density sufficient to necrotize the diseased tissue, preferably 100-200 J/cm^2, at a power density of approximately 100 mW/cm^2.

A further data set has as its system rat pituitary tumor. The settings on record: cited from earlier work.
The test system of data set [4] is tumor. The data set can be described thus: PS concentration over time in tumor and normal tissue during repetitive administration of pheophorbide a (FIG. 1). Type of data set: in vivo. As for the experimental part:
FIG. 1 Graphic representation of PS concentration over time in tumor and normal tissue, for example the skin, during repetitive administration of pheophorbide a.
FIG. 1 illustrates preferred intervals between administration of doses of pheophorbide a in cancerous tissue. As is shown in the figure, upon a first administration the concentration of pheophorbide a is initially high and slowly decreases. The concentration in healthy tissue quickly decreases and levels off, where at 24 hours the concentration in healthy tissue is very low and has reached a point where the concentration decreases very slowly. After the first 24 hour interval, the concentration in the tumor is 17 times that in healthy cells. The same effect is observed after the second administration of pheophorbide a. As a result, after a total of four administrations and a total time of 96 hours, the concentration of pheophorbide a in healthy tissues remains very small, and the concentration in the tumor is greater by a factor of 68.

In the case of `Oc1cccc(-c2c3nc(c(-c4cccc(O)c4)c4ccc([nH]4)c(-c4cccc(O)c4)c4nc(c(-c5cccc(O)c5)c5ccc2[nH]5)CC4)C=C3)c1` [Foscan, meta-tetrahydroxyphenylchlorin], in the data set on tumor [1], the “change in concentration in plasma, single versus double injections” value is recorded as “not significantly different”; the “relative concentration in skin and tumor tissue, single versus double injections” value was “nor was the relative concentration in skin and tumor tissue significantly different”.
pheophorbide a: in data set [2] (nude mice normal skin), the “time at which PS content of normal skin reached a low basal value” was 24 h. Further, the “change of pheophorbide a content of tumor” value in data set [2] (xenografted human pancreatic tumor in nude mice, between 4 and 48 hours after administration) is on record as “did not decrease”; in the data set with rat pituitary tumor (rat pituitary tumor, during 6 hours after administration), “decreased slowly”. Also, the “time for which pheophorbide a content remained high in tumor” value in data set [3] (chemically induced rat skin tumor, after administration) is given as “up to 48 hours”. Moreover, in data set [3] (rat normal skin, after administration), the “time at which pheophorbide a content of normal skin reached a basal value” is at most 24 h. Further, in data set [3] (rat, 24 hours after administration), the “basal normal skin content as fraction of tumor pheophorbide a content” value is listed as “one tenth”. Besides, in the data set with pancreatic tumor (normal pancreas), the “time at which pheophorbide a content of normal pancreas reached a low constant value” was 24 h. In addition, the “time for which content of pancreatic tumor remained elevated” value in the data set with pancreatic tumor (pancreatic tumor) is “at least 48 hours”. Moreover, the “effect on surrounding tissue upon irradiation” value in the data set with pancreas carcinoma is reported as “remains intact”. Besides, the “time at which content of normal pituitary gland reached a basal value” with rat pituitary tumor (rat normal pituitary gland) is 4 h. Further, the “concentration in tumor relative to healthy tissues” value in the data set on tumor [4] (after four administrations, total time 96 hours) came out at 68 factor. Moreover, the “concentration in tumor relative to healthy cells” value in the data set with tumor [4] (after the first 24 hour interval, one administration) was determined as 17 times.
